{"source": "ChEMBL document CHEMBL6114969", "about": "“Ultra-short lipopeptides containing d-amino acid exhibiting excellent stability and antibacterial activity against gram-positive bacteria” (Eur J Med Chem, 2025)", "key": {"[1]": {"system": "Staphylococcus epidermidis", "test": "Antibacterial activity against Staphylococcus epidermidis ATCC 12228 incubated for 18 to 24 hrs by broth microdilution method", "format": "functional", "settings": "time 18-24 hrs"}, "[2]": {"system": "Staphylococcus aureus", "test": "Antibacterial activity against methicillin-resistant Staphylococcus aureus ATCC 33591 incubated for 18 to 24 hrs in presence of 0.5 mg/ml of trypsin by broth microdilution method", "format": "functional", "settings": "time 18-24 hrs"}, "[3]": {"system": "Staphylococcus aureus", "test": "Antibacterial activity against methicillin-resistant Staphylococcus aureus ATCC 33591 incubated for 18 to 24 hrs in presence of 1 mg/ml of chymotrypsin by broth microdilution method", "format": "functional", "settings": "time 18-24 hrs"}, "[4]": {"system": "Staphylococcus aureus", "test": "Antibacterial activity against methicillin-resistant Staphylococcus aureus ATCC 33591 incubated for 18 to 24 hrs in presence of 0.5 mg/ml of pepsin by broth microdilution method", "format": "functional", "settings": "time 18-24 hrs"}, "[5]": {"system": "Staphylococcus aureus", "test": "Antibacterial activity against methicillin-resistant Staphylococcus aureus ATCC 33591 assessed as fold change in MIC incubated for 18 to 24 hrs in presence of MgCl2 by broth microdilution method", "format": "functional", "settings": "time 18-24 hrs"}, "[6]": {"system": "Staphylococcus aureus", "test": "Antibacterial activity against methicillin-resistant Staphylococcus aureus ATCC 33591 assessed as fold change in MIC incubated for 18 to 24 hrs in presence of 10 percent FBS by broth microdilution method", "format": "functional", "settings": "time 18-24 hrs"}, "[7]": {"system": "Staphylococcus aureus", "test": "Bactericidal activity against methicillin-resistant Staphylococcus aureus ATCC 33591 at 2 times MIC incubated for 6 hrs by time-kill assay relative to control", "format": "functional"}, "[8]": {"system": "Staphylococcus aureus", "test": "Synergistic bactericidal activity against persistent methicillin-resistant Staphylococcus aureus ATCC 33591 incubated for 18 to 24 hrs in presence of vancomycin by time-kill assay", "format": "functional, organism-based", "settings": "time 18-24 hrs"}, "[9]": {"system": "Staphylococcus aureus", "test": "Induction of drug resistance in Staphylococcus aureus ATCC 25923 at sub-MIC measured after 15 passages", "format": "functional, organism-based"}, "[10]": {"system": "Staphylococcus aureus", "test": "Inhibition of ciprofloxacin-induced drug resistance in Staphylococcus aureus ATCC 25923 at sub-MIC measured upto 15 passages", "format": "functional, organism-based"}, "[11]": {"system": "Staphylococcus aureus", "test": "Antibacterial activity against polymyxin B-resistant Staphylococcus aureus ATCC 25923 incubated for 18 to 24 hrs", "format": "functional", "settings": "time 18-24 hrs"}, "[12]": {"system": "Staphylococcus aureus", "test": "Bactericidal activity against methicillin-resistant Staphylococcus aureus ATCC 33591 at 4 times MIC incubated for 24 hrs in presence of 4 ug/ml LPS by absorbance based assay", "format": "functional, organism-based"}, "[13]": {"system": "Staphylococcus aureus", "test": "Bactericidal activity against methicillin-resistant Staphylococcus aureus ATCC 33591 at 4 times MIC incubated for 24 hrs in presence of 8 ug/ml LTA by absorbance based assay", "format": "functional, organism-based"}, "[14]": {"system": "Staphylococcus aureus", "test": "Induction of morphological changes in methicillin-resistant Staphylococcus aureus ATCC 33591 assessed as irregular atrophy at 2 times MIC incubated for 2 hrs by SEM analysis", "format": "functional, organism-based"}, "[15]": {"system": "Staphylococcus aureus", "test": "Induction of cell membrane damage in methicillin-resistant Staphylococcus aureus ATCC 33591 assessed as nucleic acid leakage at 2 to 8 times MIC measured upto 360 mins by absorbance based assay", "format": "functional, organism-based"}, "[16]": {"system": "Staphylococcus aureus", "test": "Destruction of cell membrane in methicillin-resistant Staphylococcus aureus ATCC 33591 measured upto 360 mins by absorbance based assay", "format": "functional, organism-based"}, "[17]": {"system": "Staphylococcus aureus", "test": "Destruction of cell membrane in methicillin-resistant Staphylococcus aureus ATCC 33591 at 2 to 8 times MIC by absorbance based assay", "format": "functional, organism-based", "settings": "time <= 360.0 min"}, "[18]": {"test": "Toxicity in Balb/c mouse assessed as survival rate at 40 mg/kg, ip measured after 7 days", "format": "organism-based", "settings": "in vivo, time 7 day"}, "[19]": {"test": "Toxicity in Balb/c mouse assessed as change in key organs appearance at 20 to 40 mg/kg, ip measured after 7 days", "format": "organism-based", "settings": "in vivo, 168 h, dose 20-40 mg/kg, time 7 day"}, "[20]": {"test": "Toxicity in Balb/c mouse assessed as spleen atrophy at 80 mg/kg, ip measured after 7 days", "format": "organism-based", "settings": "in vivo, 168 h, time 7 day"}, "[21]": {"test": "Toxicity in Balb/c mouse assessed as kidney atrophy at 80 mg/kg, ip measured after 7 days", "format": "organism-based", "settings": "in vivo, 168 h, time 7 day"}, "[22]": {"test": "Toxicity in Balb/c mouse assessed as kidney pigmentation at 80 mg/kg, ip measured after 7 days", "format": "organism-based", "settings": "in vivo, 168 h, time 7 day"}, "[23]": {"test": "Toxicity in Balb/c mouse assessed as inflammatory cell infiltration in kidney at 80 mg/kg, ip measured after 7 days by H and E staining based analysis", "format": "organism-based", "settings": "in vivo, 168 h, time 7 day"}, "[24]": {"test": "Toxicity in Balb/c mouse assessed as cell swelling in spleen at 80 mg/kg, ip measured after 7 days by H and E staining based analysis", "format": "organism-based", "settings": "in vivo, 168 h, time 7 day"}, "[25]": {"system": "Staphylococcus aureus", "test": "Antibacterial activity against methicillin-resistant Staphylococcus aureus ATCC 33591 infected in Balb/c mouse model of acute systemic infection assessed as reduction in inflammatory cell infiltration in heart at 10 mg/kg, ip measured after 5 days by H and E staining based analysis", "format": "functional, organism-based", "settings": "time 5.0 day"}, "[26]": {"system": "Staphylococcus aureus", "test": "Antibacterial activity against methicillin-resistant Staphylococcus aureus ATCC 33591 infected in Balb/c mouse model of acute systemic infection assessed as reduction in inflammatory cell infiltration in lung at 10 mg/kg, ip measured after 5 days by H and E staining based analysis", "format": "functional, organism-based", "settings": "time 5.0 day"}, "[27]": {"system": "Staphylococcus aureus", "test": "Antibacterial activity against methicillin-resistant Staphylococcus aureus ATCC 33591 infected in Balb/c mouse model of acute systemic infection assessed as reduction in tubule contraction in kidney at 10 mg/kg, ip measured after 5 days by H and E staining based analysis", "format": "functional, organism-based", "settings": "time 5.0 day"}, "[28]": {"system": "Staphylococcus aureus", "test": "Antibacterial activity against methicillin-resistant Staphylococcus aureus ATCC 33591 infected in Balb/c mouse model of acute systemic infection assessed as tissue damage repair at 10 mg/kg, ip measured after 5 days in presence of polymyxin B by H and E staining based analysis", "format": "functional, organism-based", "settings": "time 5.0 day"}, "[29]": {"system": "Staphylococcus aureus", "test": "Antibacterial activity against methicillin-resistant Staphylococcus aureus ATCC 33591 infected in Balb/c mouse model of pneumonia infection assessed as reduction in inflammatory cell infiltration in lung at 10 mg/kg, ip administered thrice at 4, 8 and 12 hrs post-infection measured after 24 hrs post-infection by H and E staining based analysis", "format": "functional, organism-based", "settings": "time 20.0 hrs"}, "[30]": {"system": "Staphylococcus aureus", "test": "Antibacterial activity against methicillin-resistant Staphylococcus aureus ATCC 33591 infected in Balb/c mouse model of pneumonia infection assessed as reduction in alveolar contraction in lung at 10 mg/kg, ip administered thrice at 4, 8 and 12 hrs post-infection measured after 24 hrs post-infection by H and E staining based analysis", "format": "functional, organism-based"}, "[31]": {"system": "Staphylococcus aureus", "test": "Antibacterial activity against methicillin-resistant Staphylococcus aureus ATCC 33591 infected in Balb/c mouse model of pneumonia infection assessed as reduction in TNF-alpha activity in lung at 10 mg/kg, ip administered thrice at 4, 8 and 12 hrs post-infection measured after 24 hrs post-infection by IHC analysis", "format": "functional, organism-based", "settings": "time 20.0 hrs"}, "[32]": {"system": "Staphylococcus aureus", "test": "Antibacterial activity against methicillin-resistant Staphylococcus aureus ATCC 33591 infected in Balb/c mouse model of skin wound infection assessed as reduction in inflammatory cell infiltration in skin at 10 mg/kg, ip administered thrice at 1, 24 and 48 hrs post-infection measured after 14 days in presence of polymyxin B by H and E staining based analysis", "format": "functional, organism-based", "settings": "time 14.0 day"}, "[33]": {"system": "Staphylococcus aureus", "test": "Antibacterial activity against methicillin-resistant Staphylococcus aureus ATCC 33591 infected in Balb/c mouse model of skin wound infection assessed as reduction in keratosis in wound surface at 10 mg/kg, ip administered thrice at 1, 24 and 48 hrs post-infection measured after 14 days by IHC analysis", "format": "functional, organism-based", "settings": "time 14.0 day"}}, "note": "Calls of active or inactive are those of the source. The rule behind the calls is not given here.", "data": [{"smiles": "CCCCCCCCCCCC(=O)N[C@H](CCCNC(=N)N)C(=O)N[C@H](CCCNC(=N)N)C(=O)N[C@H](Cc1c[nH]c2ccccc12)C(=O)O", "values": [{"measurement": "MIC", "setting": "[1]", "value": 2, "unit": "µM"}, {"measurement": "MIC", "setting": "[2]", "value": 4, "unit": "µM"}, {"measurement": "MIC", "setting": "[3]", "value": 4, "unit": "µM"}, {"measurement": "MIC", "setting": "[4]", "value": 8, "unit": "µM"}, {"measurement": "fold change (FC)", "setting": "[5]", "value": "<3"}, {"measurement": "fold change (FC)", "setting": "[6]", "value": 8}, {"measurement": "Activity", "setting": "[7]", "value": 100, "unit": "%"}, {"measurement": "Activity", "setting": "[8]", "value": "Dose-dependent-effect"}, {"measurement": "Activity", "setting": "[9]", "value": "inactive"}, {"measurement": "inhibition", "setting": "[10]", "value": "Active"}, {"measurement": "MIC", "setting": "[11]", "value": 4, "unit": "µM"}, {"measurement": "Activity", "setting": "[12]", "value": "inactive"}, {"measurement": "Activity", "setting": "[13]", "value": "inactive"}, {"measurement": "Activity", "setting": "[14]", "value": "Active"}, {"measurement": "Activity", "setting": "[15]", "value": "Active"}, {"measurement": "Activity", "setting": "[16]", "value": "Dose-dependent-effect"}, {"measurement": "Activity", "setting": "[17]", "value": "Time-dependent-effect"}, {"measurement": "survival at 168 h", "setting": "[18]", "value": 0, "unit": "%"}, {"measurement": "Activity", "setting": "[19]", "value": "Non-toxic"}, {"measurement": "Activity", "setting": "[20]", "value": "Toxic"}, {"measurement": "Activity", "setting": "[21]", "value": "Toxic"}, {"measurement": "Activity", "setting": "[22]", "value": "Toxic"}, {"measurement": "Activity", "setting": "[23]", "value": "Toxic"}, {"measurement": "Activity", "setting": "[24]", "value": "Toxic"}, {"measurement": "Activity", "setting": "[25]", "value": "Active"}, {"measurement": "Activity", "setting": "[26]", "value": "Active"}, {"measurement": "Activity", "setting": "[27]", "value": "Active"}, {"measurement": "Activity", "setting": "[28]", "value": "Active; Compound In Combination Exerted Better Activity Than Polymyxin B Treatment Alone"}, {"measurement": "Activity", "setting": "[29]", "value": "Active"}, {"measurement": "Activity", "setting": "[30]", "value": "Active"}, {"measurement": "Activity", "setting": "[31]", "value": "Active"}, {"measurement": "Activity", "setting": "[32]", "value": "Active"}, {"measurement": "Activity", "setting": "[33]", "value": "Active"}]}]}
